Key:
PI3K δ = PI3K δ (Homo sapiens (Human), UniProt O00329); test: PI3-Kinase HTRF assay; type: biochemical
Text: A PI3-Kinase HTRF® assay kit (cat No. 33-016) purchased from Millipore Corporation is used to screen compounds provided herein. This assay uses specific, high affinity binding of the GRP1 pleckstrin homology (PH) domain to PIP3, the product of a Class 1A or 1B PI3 Kinase acting on its physiological substrate PIP2. During the detection phase of the assay, a complex is generated between the GST-tagged PH domain and biotinylated short chain PIP3. The biotinylated PIP3 and the GST-tagged PH domain recruited fluorophores (Streptavidin-Allophycocyanin and Europium-labeled anti-GST respectively) to form the fluorescence resonance energy transfer (FRET) architecture, generating a stable time-resolved FRET signal. The FRET complex is disrupted in a competitive manner by non-biotinylated PIP3, a product formed in the PI3 Kinase assay.
PI3 Kinase α, γ or δ activity is assayed using the PI3 Kinase HTRF® assay kit (catalogue No. 33-016) purchased from Millipore Corporation. Purified recombinant PI3Kα (catalogue No. 14-602-K), PI3Kβ (catalogue No. 14-603-K), PI3Kγ (catalogue No. 14-558-K), and PI3Kδ (catalogue No. 14-604-K) are obtained from Millipore Corporation. Purified recombinant PI3K enzyme is used to catalyze the phosphorylation of phosphatidylinositol 4,5-bisphosphate (PIP2 at 10 μM) to phosphatidylinositol 3,4,5-trisphosphate (PIP3) in the presence of 10 μM ATP. The assay is carried out in 384-well format and detected using a Perkin Elmer EnVision Xcite Multilabel Reader. Emission ratios are converted into percent inhibitions and imported into GraphPad Prism software. […] IC50 values are determined using a nonlinear regression model available in GraphPad Prism 5.
Other commercial kits or systems for assaying PI3-K activities are available. The commercially available kits or systems can be used to screen for inhibitors and/or agonists of PI3-Ks including, but not limited to, PI 3-Kinase α, β, δ, and γ. […] The plate is sealed, incubated for 1 hour at room temperature, and then read on an appropriate plate reader. Data is analyzed and IC50s are generated using GraphPad Prism 5.

PI3K γ = PI3K γ (Homo sapiens (Human), UniProt P48736); test: PI3-Kinase HTRF assay; type: biochemical
Chain of PI3K γ (P48736 whole entry, the tested form may be a part): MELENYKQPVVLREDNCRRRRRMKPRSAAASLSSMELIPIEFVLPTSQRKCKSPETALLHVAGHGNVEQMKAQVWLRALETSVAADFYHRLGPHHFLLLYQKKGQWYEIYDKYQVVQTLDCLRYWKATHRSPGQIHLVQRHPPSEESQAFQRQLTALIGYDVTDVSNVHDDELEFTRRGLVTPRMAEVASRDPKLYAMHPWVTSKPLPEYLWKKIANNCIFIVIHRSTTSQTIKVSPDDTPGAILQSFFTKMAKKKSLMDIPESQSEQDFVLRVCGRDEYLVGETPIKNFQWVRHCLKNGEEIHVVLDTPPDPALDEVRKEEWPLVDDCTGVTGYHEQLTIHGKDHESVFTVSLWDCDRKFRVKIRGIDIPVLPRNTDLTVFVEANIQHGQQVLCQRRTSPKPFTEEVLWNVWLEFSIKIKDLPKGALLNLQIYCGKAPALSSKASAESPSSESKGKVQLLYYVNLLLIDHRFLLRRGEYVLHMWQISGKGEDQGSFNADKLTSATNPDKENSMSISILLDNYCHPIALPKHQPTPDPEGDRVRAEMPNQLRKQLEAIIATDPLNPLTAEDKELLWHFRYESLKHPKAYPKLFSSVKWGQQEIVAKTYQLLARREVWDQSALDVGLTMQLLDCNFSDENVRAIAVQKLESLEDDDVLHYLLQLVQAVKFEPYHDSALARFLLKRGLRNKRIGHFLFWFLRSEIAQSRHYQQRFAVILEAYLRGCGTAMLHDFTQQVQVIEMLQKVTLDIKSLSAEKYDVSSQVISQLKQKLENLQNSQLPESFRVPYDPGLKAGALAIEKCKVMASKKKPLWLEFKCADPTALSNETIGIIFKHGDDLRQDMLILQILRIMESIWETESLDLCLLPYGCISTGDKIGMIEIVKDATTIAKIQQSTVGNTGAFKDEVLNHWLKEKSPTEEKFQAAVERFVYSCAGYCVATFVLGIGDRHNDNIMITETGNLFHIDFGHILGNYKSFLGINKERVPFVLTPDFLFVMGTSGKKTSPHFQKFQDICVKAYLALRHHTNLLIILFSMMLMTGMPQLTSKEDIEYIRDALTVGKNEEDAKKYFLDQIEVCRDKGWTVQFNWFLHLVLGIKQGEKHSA
Text: The biotinylated PIP3 and the GST-tagged PH domain recruited fluorophores (Streptavidin-Allophycocyanin and Europium-labeled anti-GST respectively) to form the fluorescence resonance energy transfer (FRET) architecture, generating a stable time-resolved FRET signal.
Other commercial kits or systems for assaying PI3-K activities are available. […] An exemplary system is PI 3-Kinase (human) HTRF™ Assay from Upstate. […] Briefly, the assay is a time resolved FRET assay that indirectly measures PIP3 product formed by the activity of a PI3-K. The kinase reaction is performed in a microtiter plate (e.g., a 384 well microtiter plate). […] The plate is sealed and incubated for 15 minutes at room temperature. […] The plate is sealed and incubated for 1 hour at room temperature. […] The plate is sealed, incubated for 1 hour at room temperature, and then read on an appropriate plate reader. Data is analyzed and IC50s are generated using GraphPad Prism 5.

[1] = tested on: PI3K/Akt/mTOR signaling (phosphorylation of Akt-S473 and S6); test: Kinase signaling in blood (phosflow); type: cell-based; conditions: anti-CD3 stimulated splenocytes or peripheral blood mononuclear cells
Procedure: PI3K/Akt/mTOR signaling is measured in blood cells using the phosflow method (Methods Enzymol. (2007) 434:131-54). This method is by nature a single cell assay so that cellular heterogeneity can be detected rather than population averages. This allows concurrent distinction of signaling states in different populations defined by other markers. Phosflow is also highly quantitative. To test the effects of one or more compounds provided herein, unfractionated splenocytes, or peripheral blood mononuclear cells are stimulated with anti-CD3 to initiate T-cell receptor signaling. The cells are then fixed and stained for surface markers and intracellular phosphoproteins. […]
Similarly, aliquots of whole blood are incubated for 15 minutes with vehicle (e.g., 0.1% DMSO) or kinase inhibitors at various concentrations, before addition of stimuli to crosslink the T cell receptor (TCR) (anti-CD3 with secondary antibody) or the B cell receptor (BCR) using anti-kappa light chain antibody (Fab′2 fragments). […] The level of phosphorylation of kinase substrates such as Akt and S6 are then measured by incubating the fixed cells with labeled antibodies specific to the phosphorylated isoforms of these proteins. The population of cells are then analyzed by flow cytometry.

Chain of PI3K δ (O00329 whole entry, the tested form may be a part): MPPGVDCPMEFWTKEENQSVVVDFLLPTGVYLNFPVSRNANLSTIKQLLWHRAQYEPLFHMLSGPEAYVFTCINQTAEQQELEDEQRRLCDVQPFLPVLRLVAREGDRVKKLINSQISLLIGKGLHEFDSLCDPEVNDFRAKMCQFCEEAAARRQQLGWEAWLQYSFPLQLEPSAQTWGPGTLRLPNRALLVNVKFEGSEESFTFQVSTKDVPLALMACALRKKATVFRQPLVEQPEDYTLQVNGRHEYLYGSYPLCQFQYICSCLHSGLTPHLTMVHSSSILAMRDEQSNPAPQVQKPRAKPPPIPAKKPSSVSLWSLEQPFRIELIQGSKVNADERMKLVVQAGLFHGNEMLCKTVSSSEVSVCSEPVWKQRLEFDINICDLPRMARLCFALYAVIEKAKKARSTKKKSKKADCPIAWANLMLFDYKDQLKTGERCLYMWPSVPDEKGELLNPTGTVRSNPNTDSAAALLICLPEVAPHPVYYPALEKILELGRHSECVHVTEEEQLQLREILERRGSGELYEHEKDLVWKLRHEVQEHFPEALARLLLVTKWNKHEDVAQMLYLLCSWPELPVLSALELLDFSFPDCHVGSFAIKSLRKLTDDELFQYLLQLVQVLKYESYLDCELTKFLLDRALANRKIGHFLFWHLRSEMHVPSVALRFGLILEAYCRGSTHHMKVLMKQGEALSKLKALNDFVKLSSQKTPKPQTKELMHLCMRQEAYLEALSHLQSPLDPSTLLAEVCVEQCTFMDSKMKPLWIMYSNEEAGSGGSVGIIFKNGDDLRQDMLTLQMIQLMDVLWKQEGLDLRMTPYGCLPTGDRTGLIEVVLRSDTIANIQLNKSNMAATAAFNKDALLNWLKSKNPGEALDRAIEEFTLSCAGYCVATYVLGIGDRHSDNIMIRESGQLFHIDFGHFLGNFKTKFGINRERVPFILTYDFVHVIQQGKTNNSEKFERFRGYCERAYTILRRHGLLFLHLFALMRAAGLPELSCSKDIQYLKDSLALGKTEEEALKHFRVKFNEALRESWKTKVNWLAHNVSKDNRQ
Chain of PI3K δ (P27986 whole entry partner, the tested form may be a part): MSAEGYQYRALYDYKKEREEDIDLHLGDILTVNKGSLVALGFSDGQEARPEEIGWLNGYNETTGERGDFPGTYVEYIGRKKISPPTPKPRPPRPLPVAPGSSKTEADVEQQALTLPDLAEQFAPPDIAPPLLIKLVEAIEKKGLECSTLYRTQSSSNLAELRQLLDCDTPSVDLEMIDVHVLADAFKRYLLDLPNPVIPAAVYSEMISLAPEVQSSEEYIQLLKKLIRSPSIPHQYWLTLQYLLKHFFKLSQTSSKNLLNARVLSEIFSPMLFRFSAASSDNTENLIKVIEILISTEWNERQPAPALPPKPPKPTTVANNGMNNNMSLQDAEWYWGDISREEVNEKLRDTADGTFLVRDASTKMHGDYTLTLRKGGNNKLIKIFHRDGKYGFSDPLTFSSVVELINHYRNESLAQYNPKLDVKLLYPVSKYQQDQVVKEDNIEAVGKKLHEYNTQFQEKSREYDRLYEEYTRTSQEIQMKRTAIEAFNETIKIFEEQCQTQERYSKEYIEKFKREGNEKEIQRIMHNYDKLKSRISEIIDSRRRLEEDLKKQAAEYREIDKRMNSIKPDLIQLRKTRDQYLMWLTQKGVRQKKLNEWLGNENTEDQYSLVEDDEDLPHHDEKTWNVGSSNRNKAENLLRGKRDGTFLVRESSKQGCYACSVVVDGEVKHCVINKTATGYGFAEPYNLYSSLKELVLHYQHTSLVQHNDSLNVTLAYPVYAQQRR

Structure (SMILES)	IC50 (PI3K δ) [µM]	IC50 (PI3K γ) [µM]	PI3K δ/PI3K γ IC50 (selectivity) (PI3K γ; δ/γ IC50 selectivity)	Akt phosphorylation (Akt-S473) [1]	S6 phosphorylation [1]
C[C@H](NC(=O)c1c(N)nn2ccccc12)c1cc2cccc(C#Cc3cnn(C)c3)c2c(=O)n1-c1ccccc1 [Compound 1]	> 10	0.1 to 0.5	Y (Y = 50 to <850)		
C[C@H](NC(=O)c1c(N)nn2ccccc12)c1cc2cccc(Cl)c2c(=O)n1-c1ccccc1 [Compound 31]	1 to 5				
C[C@H](NC(=O)c1c(N)ncc2ccccc12)c1cc2cccc(Cl)c2c(=O)n1-c1ccccc1 [Compound 3626]	> 10	> 5			
CO[C@H]1C[C@@H]2CC[C@@H](C)[C@@](O)(O2)C(=O)C(=O)N2CCCC[C@H]2C(=O)O[C@H]([C@H](C)C[C@@H]2CC[C@@H](O)[C@H](OC)C2)CC(=O)[C@H](C)/C=C(\C)[C@@H](O)[C@@H](OC)C(=O)[C@H](C)C[C@H](C)/C=C/C=C/C=C/1C [rapamycin]				enhances	inhibits

Reference: US10919914B2, “Heterocyclic compounds and uses thereof” (Infinity Pharmaceuticals, Inc., priority 2016, dated 2021)
